# Experimental data from paper PMC7320009 (Scientific Reports, 2020).
# Experiments:
# BPSS2242 [1] = target: T1, BPSS2242 (Burkholderia pseudomallei, UniProt Q63I27)
# BPSS2242 [2] = target: T1, BPSS2242; remark: listed apart in the source
# T1 sequence (Q63I27 1-271 limits assumed): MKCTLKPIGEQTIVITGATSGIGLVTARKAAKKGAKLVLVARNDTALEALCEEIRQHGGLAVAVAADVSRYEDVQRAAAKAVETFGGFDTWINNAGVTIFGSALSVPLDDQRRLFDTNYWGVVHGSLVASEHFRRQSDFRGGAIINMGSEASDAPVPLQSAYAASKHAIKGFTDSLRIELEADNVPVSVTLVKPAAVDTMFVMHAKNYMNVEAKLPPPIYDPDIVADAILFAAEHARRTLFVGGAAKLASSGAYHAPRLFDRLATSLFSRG
Compound,Tm (BPSS2242 [1]) [°C],NADPH oxidation at 340 nm (BPSS2242 [2])
NC(=O)C1=CN([C@@H]2O[C@H](COP(=O)(O)OP(=O)(O)OC[C@H]3O[C@@H](n4cnc5c(N)ncnc54)[C@H](OP(=O)(O)O)[C@@H]3O)[C@@H](O)[C@H]2O)C=CC1 [NADPH],55.23,–
CC(=O)C=O [methylglyoxal],–,BPSS2242 exhibited reductase activity toward diacetyl and methylglyoxal when NADPH was used
